Where a name gives a salt, the structure may show the parent alone.
Tested on: Pseudomonas aeruginosa PAM1001
Test: microbe, parasite or virus in culture
Assay type: cell-based
Conditions: for inhibition at 2.5 µg/mL / inhibition at 5 µg/mL / inhibition at 10 µg/mL / inhibition at 20 µg/mL / inhibition at 40 µg/mL: Pseudomonas aeruginosa, PAM1001, read-out: Inhibition (%) of growth of P. aeruginosa PAM1001; for Inhibition (%) of growth of P. aeruginosa PAM1001: Levofloxacin 0.25 μg/mL
Procedure: For compounds labeled with the prefix ‘D’, potentiation is measured by inhibition of growth of Pseudomonas aeruginosa PAM1001 at varying concentrations of efflux pump inhibitors (EPIs) in the presence of levofloxacin (0.25 microg/mL). Bacteria are grown in Mueller Hinton Broth (MHB, Difco) with an initial inoculum of 1×10^6 CFU/mL. Kinetics of bacterial growth is monitored, during 18 h of incubation at 37° C., by measurement of the culture absorbance at 650 nm using a 96-well plate spectrophotometer (SpectraMax, Molecular Devices). The inhibitory effect of EPIs is expressed as a percentage of growth inhibition compared to a control bacterial culture grown in the presence of 0.25 microg/mL levofloxacin but without EPIs.

[1] = Concentration of Compound 2.5 μg/mL
[2] = Concentration of Compound 5 μg/mL
[3] = Concentration of Compound 10 μg/mL
[4] = Concentration of Compound 20 μg/mL
[5] = Concentration of Compound 40 μg/mL

NCC(=O)N[C@H]1CN[C@H](C(=O)N2C[C@H](NC(=O)[C@H](O)CCc3ccccc3)C[C@H]2C(=O)Nc2cnc3ccccc3c2)C1 (mixture of isomers) [Compound D103, trans-4-Glycylamino-L-Prolyl-trans-4-((R)-2-Hydroxy-4-Phenylbutyrylamino)-L-Proline 3-Quinolylamide Trihydrochloride]
inhibition at 2.5 µg/mL: 17% | inhibition at 5 µg/mL: 6% | inhibition at 10 µg/mL: 99% | inhibition at 20 µg/mL: 100% | inhibition at 40 µg/mL: 100%

NCC(=O)N[C@@H]1CN[C@@H](COc2cccc(-c3ccccc3)c2)C1 [Compound D504, (2R,4S)-4-Glycylamino-2-(3-Biphenyloxy)methyl-pyrrolidine Dihydrochloride]
inhibition at 2.5 µg/mL: 22% | inhibition at 5 µg/mL: 3% | inhibition at 10 µg/mL: 74% | inhibition at 20 µg/mL: 100% | inhibition at 40 µg/mL: 99%

NCC(=O)N[C@H]1CN[C@H](C(=O)N2CCC(Oc3ccc(OCc4ccccc4)cc3)CC2)C1 [Compound D413, 1-(trans-4-Glycylamino-L-Prolyl)4-(4-Benzyloxyphenoxy)piperidine Dihydrochloride]
inhibition at 2.5 µg/mL: 13% | inhibition at 5 µg/mL: 8% | inhibition at 10 µg/mL: 97% | inhibition at 20 µg/mL: 100% | inhibition at 40 µg/mL: 100%

N[C@H]1CCN[C@H](C(=O)N2C[C@H](NC(=O)[C@H](O)CCc3ccccc3)C[C@H]2C(=O)Nc2cnc3ccccc3c2)C1 (mixture of isomers) [Compound D112, trans-4-Amino-L-Pipecolinoyl-trans-4-((R)-2-Hydroxy-4-Phenylbutyrylamino)-L-Proline 3-Quinolylamide Trihydrochloride]
inhibition at 2.5 µg/mL: 20% | inhibition at 5 µg/mL: 20% | inhibition at 10 µg/mL: 17% | inhibition at 20 µg/mL: 58% | inhibition at 40 µg/mL: 101%

NCC(=O)N[C@H]1CN[C@H](C(=O)Nc2ccc(OCc3ccccc3)cc2)C1 [Compound D317, trans-4-Glycylamino-L-Proline 4-Benzyloxyphenyl-amide Dihydrochloride]
inhibition at 2.5 µg/mL: 20% | inhibition at 5 µg/mL: 18% | inhibition at 10 µg/mL: -1% | inhibition at 20 µg/mL: 99% | inhibition at 40 µg/mL: 99%

Cl.Cl.NCC(=O)NC1CNC(C(=O)Nc2cccc(NC(=O)CCc3ccccc3)c2)C1 [Compound D701, 1-(N-trans-4-Glycylamino-L-Prolylamino)-3-(4-Phenylpropanoylamino)benzene Dihydrochloride]
Inhibition (%) of growth of P. aeruginosa PAM1001 [1]: 17% | Inhibition (%) of growth of P. aeruginosa PAM1001 [2]: 10% | Inhibition (%) of growth of P. aeruginosa PAM1001 [3]: 96% | Inhibition (%) of growth of P. aeruginosa PAM1001 [4]: 100% | Inhibition (%) of growth of P. aeruginosa PAM1001 [5]: 100%

NCC(=O)N[C@@H]1CN[C@@H](C(=O)N2CCN(Cc3ccccc3)C[C@H]2CCc2ccccc2)C1 [Compound D409, (2R)-4-Benzyl-1-(trans-4-Glycylamino-D-Prolyl)-2-Phenethylpiperazine Trihydrochloride]
inhibition at 2.5 µg/mL: 22% | inhibition at 5 µg/mL: 16% | inhibition at 10 µg/mL: 99% | inhibition at 20 µg/mL: 100% | inhibition at 40 µg/mL: 100%

NCC(=O)N[C@@H]1CN[C@@H](COc2ccc(-c3ccccc3)cc2)C1 [Compound D503, (2R,4S)-4-Glycylamino-2-(4-Biphenyloxy)methyl-pyrrolidine Dihydrochloride]
inhibition at 2.5 µg/mL: 22% | inhibition at 5 µg/mL: 15% | inhibition at 10 µg/mL: 100% | inhibition at 20 µg/mL: 100% | inhibition at 40 µg/mL: 100%

NCC(=O)N[C@H]1CN[C@H](C(=O)Nc2ccc(Oc3ccccc3)cc2)C1 [Compound D301, trans-4Glycylamino-L-Proline 4-Phenoxyphenylamide Dihydrochloride]
inhibition at 2.5 µg/mL: 17% | inhibition at 5 µg/mL: 14% | inhibition at 10 µg/mL: 81% | inhibition at 20 µg/mL: 99% | inhibition at 40 µg/mL: 99%

Cc1cc(NC(=O)[C@@H](CCc2ccccc2)NC(=O)[C@@H]2C[C@@H](NC(=O)CN)CN2)ccc1Cl [Compound D206, trans-4-Glycylamino-L-Prolyl-D-Homophenylalanine 4-Chloro-3-Methylphenylamide Dihydrochloride]
inhibition at 2.5 µg/mL: 16% | inhibition at 5 µg/mL: 10% | inhibition at 10 µg/mL: 100% | inhibition at 20 µg/mL: 99% | inhibition at 40 µg/mL: 100%

NCC(O)C[C@H](N)C(=O)N1C[C@H](NC(=O)CCCc2ccccc2)C[C@H]1C(=O)Nc1ccc2c(c1)CCC2 (stereo partly drawn) [Compound D125, 4-Hydroxy-L-Ornithyl-trans-4-(4-Phenylbutanoyl)amino-L-Proline 5-Indanylamide Dihydrochloride]
inhibition at 2.5 µg/mL: 15% | inhibition at 5 µg/mL: 100% | inhibition at 10 µg/mL: 100% | inhibition at 20 µg/mL: 100% | inhibition at 40 µg/mL: 100%

Cc1ccc(Oc2ccc(NC(=O)[C@@H]3C[C@@H](NC(=O)CN)CN3)cc2)cc1 [Compound D302, trans-4-Glycylamino-L-Proline 4-(4′-Methylphenoxy)-phenylamide Dihydrochloride]
inhibition at 2.5 µg/mL: 22% | inhibition at 5 µg/mL: 17% | inhibition at 10 µg/mL: 97% | inhibition at 20 µg/mL: 100% | inhibition at 40 µg/mL: 100%

N[C@@H]1CCN[C@H](C(=O)N2C[C@H](NC(=O)[C@H](O)CCc3ccccc3)C[C@H]2C(=O)Nc2cnc3ccccc3c2)C1 (mixture of isomers) [Compound D113, cis-4-Amino-L-Pipecolinoyl-trans-4-((R)-2-Hydroxy-4-Phenylbutyrylamino)-L-Proline 3-Quinolylamide Trihydrochloride]
inhibition at 2.5 µg/mL: 20% | inhibition at 5 µg/mL: 32% | inhibition at 10 µg/mL: 15% | inhibition at 20 µg/mL: 15% | inhibition at 40 µg/mL: 100%

NC[C@H]1CN[C@H](C(=O)N2C[C@H](NC(=O)[C@H](O)CCc3ccccc3)C[C@H]2C(=O)Nc2cnc3ccccc3c2)C1 (mixture of isomers) [Compound D109, trans-4-Aminomethyl-L-Prolyl-trans-4-((R)-2-Hydroxy-4-Phenylbutyrylamino)-L-Proline 3-Quinolylamide Trihydrochloride]
inhibition at 2.5 µg/mL: 17% | inhibition at 5 µg/mL: 21% | inhibition at 10 µg/mL: 98% | inhibition at 20 µg/mL: 100% | inhibition at 40 µg/mL: 100%

Cl.Cl.NCC(=O)N[C@H]1CN[C@H](C=Cc2ccc(-c3ccccc3)cc2)C1 [Compound D801, (2S,4R)-4-Glycylamino-2-((E and Z)-4-Phenyistyryl)-pyrrolidine Dihydrochloride]
Inhibition (%) of growth of P. aeruginosa PAM1001 [1]: 8% | Inhibition (%) of growth of P. aeruginosa PAM1001 [2]: 63% | Inhibition (%) of growth of P. aeruginosa PAM1001 [3]: 99% | Inhibition (%) of growth of P. aeruginosa PAM1001 [4]: 99% | Inhibition (%) of growth of P. aeruginosa PAM1001 [5]: 99%

NC[C@H]1CN[C@H](C(=O)Nc2ccc(Oc3ccccc3)cc2)C1 [Compound D331, trans-4-Aminomethyl-L-Proline 4-Phenoxyphenyl-amide Dihydrochloride]
inhibition at 2.5 µg/mL: 17% | inhibition at 5 µg/mL: 9% | inhibition at 10 µg/mL: -10% | inhibition at 20 µg/mL: 100% | inhibition at 40 µg/mL: 100%

NCC(=O)N[C@@H]1CN[C@H](C(=O)N2C[C@H](NC(=O)[C@H](O)CCc3ccccc3)C[C@H]2C(=O)Nc2cnc3ccccc3c2)C1 (mixture of isomers) [Compound D104, cis-4-Glycylamino-L-Prolyl-trans-4-((R)-2-Hydroxy-4-Phenylbutyrylamino)-L-Proline 3-Quinolylamide Trihydrochloride]
inhibition at 2.5 µg/mL: 18% | inhibition at 5 µg/mL: 19% | inhibition at 10 µg/mL: 14% | inhibition at 20 µg/mL: 62% | inhibition at 40 µg/mL: 100%

Cl.Cl.Cl.NC[C@H](O)C(=O)N[C@H]1CN[C@H](C(=O)N2C[C@H](NC(=O)[C@H](O)CCc3ccccc3)C[C@H]2C(=O)Nc2cnc3ccccc3c2)C1 (relative stereo) [Compound D108, trans-4-((S)-3-Amino-2-Hydroxypropionylamino)-L-Prolyl-trans-4-((R)-2-Hydroxy-4-Phenylbutyrylamino)-L-Proline 3-Quinolylamide Trihydrochlonde]
Inhibition (%) of growth of P. aeruginosa PAM1001 [1]: 23% | Inhibition (%) of growth of P. aeruginosa PAM1001 [2]: 22% | Inhibition (%) of growth of P. aeruginosa PAM1001 [3]: 22% | Inhibition (%) of growth of P. aeruginosa PAM1001 [4]: 100% | Inhibition (%) of growth of P. aeruginosa PAM1001 [5]: 101%

NCC(=O)N[C@H]1CN[C@H](C(=O)Nc2ccc(Cc3ccccc3)cc2)C1 [Compound D308, trans-4-Glycylamino-L-Proline 4-Benzylphenylamide Dihydrochloride]
inhibition at 2.5 µg/mL: 16% | inhibition at 5 µg/mL: 14% | inhibition at 10 µg/mL: 98% | inhibition at 20 µg/mL: 100% | inhibition at 40 µg/mL: 100%

NCC(=O)N[C@@H]1CN[C@@H](C(=O)N2C[C@H](NC(=O)[C@H](O)CCc3ccccc3)C[C@H]2C(=O)Nc2cnc3ccccc3c2)C1 (mixture of isomers) [Compound D105, trans-4-Glycylamino-D-Prolyl-trans-4-((R)-2-Hydroxy-4-Phenylbutyrylamino)-L-proline 3-Quinolylamide Trihydrochloride]
inhibition at 2.5 µg/mL: 19% | inhibition at 5 µg/mL: 18% | inhibition at 10 µg/mL: 50% | inhibition at 20 µg/mL: 99% | inhibition at 40 µg/mL: 101%

NCCC[C@@H](N)C(=O)N1C[C@H](NC(=O)CCCc2ccccc2)C[C@H]1C(=O)Nc1ccc2c(c1)CCC2 [Compound D121, D-Ornithyl-trans-4-(4-Phenylbutanoyl)amino-L-Proline 5-Indanylamide]
inhibition at 2.5 µg/mL: 15% | inhibition at 5 µg/mL: 99% | inhibition at 10 µg/mL: 100% | inhibition at 20 µg/mL: 100% | inhibition at 40 µg/mL: 100%
